According to patent US10487092B2, “Pyrazolopyridinamines as MKNK1 and MKNK2 inhibitors” (BAYER PHARMA AKTIENGESELLSCHAFT, priority 2014, dated 2019):

Target: human full-length MKNK1 (Homo sapiens (Human), UniProt Q9BUB5, T344D)
Assay: MKNK1 kinase high ATP assay (TR-FRET)
Type: biochemical
Details: high ATP (2 mM), 15 min preincubation with enzyme; read-out: MKNK1 IC50
In short: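 GST-tagged full-length MKNK1 (aa 1–424, T344D; insect-cell expressed) preincubated 15 min with compound, then reacted 30 min at 22 °C with 2 mM ATP and 0.06 μM biotinylated peptide (final) in HEPES pH 7.5 buffer. Phosphopeptide detected by TR-FRET 665/620 ratio, normalized to no-inhibitor and no-enzyme controls.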

Chain of human full-length MKNK1 (Q9BUB5 other isoform, or with tags, fused parts or gaps T344D): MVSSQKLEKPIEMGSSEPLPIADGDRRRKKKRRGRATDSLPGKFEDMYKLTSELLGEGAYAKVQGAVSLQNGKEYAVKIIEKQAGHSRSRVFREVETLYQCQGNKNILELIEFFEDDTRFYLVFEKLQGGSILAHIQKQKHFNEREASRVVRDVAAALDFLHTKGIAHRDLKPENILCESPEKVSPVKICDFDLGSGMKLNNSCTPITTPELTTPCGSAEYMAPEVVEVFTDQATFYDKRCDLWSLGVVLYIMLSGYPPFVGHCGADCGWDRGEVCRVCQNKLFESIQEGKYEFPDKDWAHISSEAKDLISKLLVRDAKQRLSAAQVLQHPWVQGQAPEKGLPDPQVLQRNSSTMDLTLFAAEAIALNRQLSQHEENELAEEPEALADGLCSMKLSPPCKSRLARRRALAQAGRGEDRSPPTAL

SMILES	IC50
CNC(=O)[C@H]1CCc2c(sc3ncnc(Nc4cc5ccnn5cc4OC)c23)C1 [Example 78, (7S)-4-[(6-Methoxypyrazolo[1,5-a]pyridin-5-yl)amino]-N-methyl-5,6,7,8-tetrahydro[1]benzothieno[2,3-d]pyrimidine-7-carboxamide]	5 nM
COc1cn2nccc2cc1Nc1ncnc2sc3c(c12)CC[C@H](C(=O)NCC(F)F)C3 [Example 79, (7S)—N-(2,2-Difluoroethyl)-4-[(6-methoxypyrazolo[1,5-a]pyridin-5-yl)amino]-5,6,7,8-tetrahydro[1]benzothieno[2,3-d]pyrimidine-7-carboxamide]	3 nM
COc1cn2nccc2cc1Nc1ncnc2sc3c(c12)CC[C@H](C(=O)NCCC(F)(F)F)C3 [Example 80, (7S)-4-[(6-Methoxypyrazolo[1,5-a]pyridin-5-yl)amino]-N-(3,3,3-trifluoropropyl)-5,6,7,8-tetrahydro[1]benzothieno[2,3-d]pyrimidine-7-carboxamide]	3 nM
COc1cn2nccc2cc1Nc1ncnc2sc3c(c12)CC[C@H](C(=O)NCC(C)(C)O)C3 [Example 81, (7S)—N-(2-Hydroxy-2-methylpropyl)-4-[(6-methoxypyrazolo[1,5-a]pyridin-5-yl)amino]-5,6,7,8-tetrahydro[1]benzothieno[2,3-d]pyrimidine-7-carboxamide]	2 nM
COc1cn2nccc2cc1Nc1ncnc2sc3c(c12)CC[C@H](C(=O)NCCN(C)C)C3 [Example 82, (7S)—N-[2-(Dimethylamino)ethyl]-4-[(6-methoxypyrazolo[1,5-a]pyridin-5-yl)amino]-5,6,7,8-tetrahydro[1]benzothieno[2,3-d]pyrimidine-7-carboxamide]	3 nM
COc1cn2nccc2cc1Nc1ncnc2sc3c(c12)CC[C@H](C(=O)NCCO)C3 [Example 83, (7S)—N-(2-Hydroxyethyl)-4-[(6-methoxypyrazolo[1,5-a]pyridin-5-yl)amino]-5,6,7,8-tetrahydro[1]benzothieno[2,3-d]pyrimidine-7-carboxamide]	3 nM
COCCNC(=O)[C@H]1CCc2c(sc3ncnc(Nc4cc5ccnn5cc4OC)c23)C1 [Example 84, (7S)—N-(2-Methoxyethyl)-4-[(6-methoxypyrazolo[1,5-a]pyridin-5-yl)amino]-5,6,7,8-tetrahydro[1]benzothieno[2,3-d]pyrimidine-7-carboxamide]	3 nM
COc1cn2nccc2cc1Nc1ncnc2sc3c(c12)CC[C@H](C(=O)NC(C)(C)C)C3 [Example 86, (7S)—N-tert-Butyl-4-[(6-methoxypyrazolo[1,5-a]pyridin-5-yl)amino]-5,6,7,8-tetrahydro[1]benzothieno[2,3-d]pyrimidine-7-carboxamide]	4 nM
COc1cn2nccc2cc1Nc1ncnc2sc3c(c12)CC[C@H](C(=O)NC1(C)CCC1)C3 [Example 87, (7S)-4-[(6-Methoxypyrazolo[1,5-a]pyridin-5-yl)amino]-N-(1-methylcyclobutyl)-5,6,7,8-tetrahydro[1]benzothieno[2,3-d]pyrimidine-7-carboxamide]	4 nM
COc1cn2nccc2cc1Nc1ncnc2sc3c(c12)CC[C@H](C(=O)Nc1ccc(F)cc1)C3 [Example 88, (7S)—N-(4-Fluorophenyl)-4-[(6-methoxypyrazolo[1,5-a]pyridin-5-yl)amino]-5,6,7,8-tetrahydro[1]benzothieno[2,3-d]pyrimidine-7-carboxamide]	8 nM
COc1cn2nccc2cc1Nc1ncnc2sc3c(c12)CC[C@H](C(=O)Nc1cccc(Cl)c1)C3 [Example 89, (7S)—N-(3-Chlorophenyl)-4-[(6-methoxypyrazolo[1,5-a]pyridin-5-yl)amino]-5,6,7,8-tetrahydro[1]benzothieno[2,3-d]pyrimidine-7-carboxamide]	24 nM
COc1cn2nccc2cc1Nc1ncnc2sc3c(c12)CC[C@H](C(=O)Nc1ccc(Cl)c(Cl)c1)C3 [Example 90, (7S)—N-(3,4-Dichlorophenyl)-4-[(6-methoxypyrazolo[1,5-a]pyridin-5-yl)amino]-5,6,7,8-tetrahydro[1]benzothieno[2,3-d]pyrimidine-7-carboxamide]	235 nM
COc1cn2nccc2cc1Nc1ncnc2sc3c(c12)CC[C@H](C(=O)Nc1ccc(F)c(Cl)c1)C3 [Example 91, (7S)—N-(3-Chloro-4-fluorophenyl)-4-[(6-methoxypyrazolo[1,5-a]pyridin-5-yl)amino]-5,6,7,8-tetrahydro[1]benzothieno[2,3-d]pyrimidine-7-carboxamide]	48 nM
COc1cn2nccc2cc1Nc1ncnc2sc3c(c12)CC[C@H](C(=O)Nc1cccc(F)c1)C3 [Example 92, (7S)—N-(3-Fluorophenyl)-4-[(6-methoxypyrazolo[1,5-a]pyridin-5-yl)amino]-5,6,7,8-tetrahydro[1]benzothieno[2,3-d]pyrimidine-7-carboxamide]	7 nM
COc1cn2nccc2cc1Nc1ncnc2sc3c(c12)CC[C@H](C(=O)Nc1ccc2[nH]ccc2c1)C3 [Example 93, (7S)—N-(1H-Indol-5-yl)-4-[(6-methoxypyrazolo[1,5-a]pyridin-5-yl)amino]-5,6,7,8-tetrahydro[1]benzothieno[2,3-d]pyrimidine-7-carboxamide]	3 nM
CCN(C)C(=O)[C@H]1CCc2c(sc3ncnc(Nc4cc5ccnn5cc4OC)c23)C1 [Example 94, (7S)—N-Ethyl-4-[(6-methoxypyrazolo[1,5-a]pyridin-5-yl)amino]-N-methyl-5,6,7,8-tetrahydro[1]benzothieno[2,3-d]pyrimidine-7-carboxamide]	1 nM
COc1cn2nccc2cc1Nc1ncnc2sc3c(c12)CC[C@H](C(=O)N(C)CCC(F)(F)F)C3 [Example 96, (7S)-4-[(6-Methoxypyrazolo[1,5-a]pyridin-5-yl)amino]-N-methyl-N-(3,3,3-trifluoropropyl)-5,6,7,8-tetrahydro[1]benzothieno[2,3-d]pyrimidine-7-carboxamide]	7 nM
CCCCN(C)C(=O)[C@H]1CCc2c(sc3ncnc(Nc4cc5ccnn5cc4OC)c23)C1 [Example 97, (7S)—N-Butyl-4-[(6-methoxypyrazolo[1,5-a]pyridin-5-yl)amino]-N-methyl-5,6,7,8-tetrahydro[1]benzothieno[2,3-d]pyrimidine-7-carboxamide]	1 nM
COc1cn2nccc2cc1Nc1ncnc2sc3c(c12)CC[C@H](C(=O)N(C)CCCN(C)C)C3 [Example 99, (7S)—N-[3-(Dimethylamino)propyl]-4-[(6-methoxypyrazolo[1,5-a]pyridin-5-yl)amino]-N-methyl-5,6,7,8-tetrahydro[1]benzothieno[2,3-d]pyrimidine-7-carboxamide]	1 nM
COc1cn2nccc2cc1Nc1ncnc2sc3c(c12)CC[C@H](C(=O)N(C)CCN(C)C)C3 [Example 101, (7S)—N-[2-(Dimethylamino)ethyl]-4-[(6-methoxypyrazolo[1,5-a]pyridin-5-yl)amino]-N-methyl-5,6,7,8-tetrahydro[1]benzothieno[2,3-d]pyrimidine-7-carboxamide]	2 nM
COc1cn2nccc2cc1Nc1ncnc2sc3c(c12)CC[C@H](C(=O)N(C)C(C)C)C3 [Example 105, (7S)-4-[(6-Methoxypyrazolo[1,5-a]pyridin-5-yl)amino]-N-methyl-N-(propan-2-yl)-5,6,7,8-tetrahydro[1]benzothieno[2,3-d]pyrimidine-7-carboxamide]	2 nM
COc1cn2nccc2cc1Nc1ncnc2sc3c(c12)CC[C@H](C(=O)N1CC[C@H](N(C)C)C1)C3 [Example 107, [(3S)-3-(Dimethylamino)pyrrolidin-1-yl](7S)-4-[(6-methoxypyrazolo[1,5-a]pyridin-5-yl)amino]-5,6,7,8-tetrahydro[1]benzothieno[2,3-d]pyrimidin-7-ylmethanone]	< 1 nM
COc1cn2nccc2cc1Nc1ncnc2sc3c(c12)CC[C@H](C(=O)N1C[C@H](O)[C@@H](O)C1)C3 [Example 108, [(3S,4S)-3,4-Dihydroxypyrrolidin-1-yl](7S)-4-[(6-methoxypyrazolo[1,5-a]pyridin-5-yl)amino]-5,6,7,8-tetrahydro[1]benzothieno[2,3-d]pyrimidin-7-ylmethanone]	1 nM
COc1cn2nccc2cc1Nc1ncnc2sc3c(c12)CC[C@H](C(=O)N1CCC(N(C)C)CC1)C3 [Example 109, [4-(Dimethylamino)piperidin-1-yl](7S)-4-[(6-methoxypyrazolo[1,5-a]pyridin-5-yl)amino]-5,6,7,8-tetrahydro[1]benzothieno[2,3-d]pyrimidin-7-ylmethanone]	1 nM
COc1cn2nccc2cc1Nc1ncnc2sc3c(c12)CC[C@H](C(=O)N1CCC(N(C)CCN(C)C)CC1)C3 [Example 110]	< 1 nM
COc1cn2nccc2cc1Nc1ncnc2sc3c(c12)CC[C@H](C(=O)N(CCO)CCCN(C)C)C3 [Example 111, (7S)—N-[3-(Dimethylamino)propyl]-N-(2-hydroxyethyl)-4-[(6-methoxypyrazolo[1,5-a]pyridin-5-yl)amino]-5,6,7,8-tetrahydro[1]benzothieno[2,3-d]pyrimidine-7-carboxamide]	3 nM
COc1cn2nccc2cc1Nc1ncnc2sc3c(c12)CC[C@H](C(=O)N1C[C@@H](C)O[C@@H](C)C1)C3 [Example 112, [(2R,6S)-2,6-Dimethylmorpholin-4-yl](7S)-4-[(6-methoxypyrazolo[1,5-a]pyridin-5-yl)amino]-5,6,7,8-tetrahydro[1]benzothieno[2,3-d]pyrimidin-7-ylmethanone]	2 nM
COc1cn2nccc2cc1Nc1ncnc2sc3c(c12)CC[C@H](C(=O)N1CCN(CCN(C)C)CC1)C3 [Example 114, 4-[2-(Dimethylamino)ethyl]piperazin-1-yl(7S)-4-[(6-methoxypyrazolo[1,5-a]pyridin-5-yl)amino]-5,6,7,8-tetrahydro[1]benzothieno[2,3-d]pyrimidin-7-ylmethanone]	< 1 nM
